Laboratory results taken from patent publication US20200399238A1, “THERAPEUTIC AURONES” (MIDDLE TENNESSEE STATE UNIVERSITY, priority 2016, published 2020).
Like-named read-outs stand apart in the source and are kept apart here.

Columns and labels:
[1] = system: PMA-differentiated THP-1 cells; assay: Alamar Blue cell viability assay, THP-1; assay type: cell-based, human; settings: THP-1 cells, 4 h with LPS, mean ± SD
Experimental: THP-1 cells were maintained in RPMI 1640 medium supplemented with 10% heat-inactivated FBS and 1% penicillin/streptomycin (complete culture medium) at 37° C. with 5% CO2 supplemented. Cell concentrations were adjusted to desired concentrations for each experiment by centrifugation at 500×g for 5 min and resuspended in complete culture medium with 100 nM of PMA. Cell concentration was adjusted to 5×10^5 cells/ml for all assays with the exception of 2.5×10^5 cells/ml were used for NF-κB nuclear translocation assay. Cells were seeded onto 96-, 24-, or 12-well plates and incubated for 48 to 72 h to allow for differentiation. Cells were washed with serum-free RPMI 1640 medium before each experiment to remove undifferentiated cells. […] Cells were seeded into tissue culture plates at 10% confluence and grown to 80% confluence within 72 h. For live cell microscopy, 1×10^5 cells/ml were seeded into 35 mm glass-bottom (MatTek) dishes 24 h prior to imaging. For luciferase assays, 1.2×10^5 cells/well were seeded into 24-well tissue culture-treated plates.
Following treatment, the relative cell viability was measured by Alamar Blue assay. For Alamar Blue assays, supernatants were replaced with culture medium containing 1× Alamar Blue reagent and incubated overnight. Cell viability was assessed by measuring relative fluorescent units (RFU) on the SpectraMax M2e microplate reader (Molecular Devices Inc., Sunnyvale, Calif., USA) at Ex 560 nm and Em 590 nm. The results were expressed as a percentage relative to LPS alone control cells. The effects of the vehicle control, DMSO, on cell viability were also assessed.
(§1) Dexamethasone is a synthetic glucocorticoid that suppresses LPS-induced pro-inflammatory cytokine expression and was used as a control (Abraham, Lawrence et al. 2006). Supernatants were collected for human cytokine ELISAs and the manufacturer's protocol was followed to assess the cytokine response. Cells remaining after the supernatant collection were tested for relative viability by Alamar Blue cytotoxicity assay as previously described.

TNFα = assay: Cytokine response by ELISA, TNFα; assay type: cell-based, human; settings: for effect on TNFα expression: LPS-stimulated THP-1, ELISA
Experimental: as §1

[2] = system: Trypanosoma brucei brucei 427 cells; assay: T. brucei culture and assay (PrestoBlue); assay type: cell-based; settings: for IC50: mean of 2(+) independent trials, read-out: IC50 T. brucei
[3] = system: Trypanosoma cruzi Tulahuen trypomastigotes; assay: T. cruzi extracellular assay (CellTiter Glo); assay type: cell-based; settings: for IC50: Trypanosoma cruzi, TULAHUEN
[4] = system: Leishmania amazonensis promastigotes expressing beta-lactamase; assay: microbe, parasite or virus in culture; assay type: cell-based; settings: for IC50: Leishmania amazonensis
[5] = system: rat skeletal muscle cell line, L6; assay: cells; assay type: cell-based; settings: Rattus norvegicus; Table 1; read-out: IC50 Toxicity (L6)
[6] = Homo sapiens, LPS-stimulated THP-1 cells, mean ± SD, read-out: Average % TNF-α Inhibition
[7] = LPS-stimulated THP-1 cells, 20 μM, mean ± SD
[8] = LPS-stimulated THP-1 cells, 20 and 40 μM (one cell for all concentrations)
[9] = Table 1, ^b extracellular T. cruzi assay, read-out: IC50 T. cruzi
[10] = Table 2, extracellular assay, read-out: IC50 T. cruzi (footnote b: Extracellular T. cruzi assay)
[11] = Table 2, L6 IC50 / L. amazonensis IC50
[12] = Table 2, L6 IC50 / T. brucei IC50

SMILES: O=C1/C(=C/c2cccc(O)c2)Oc2ccccc21 [Aurone 5, (Z)-2-(3-hydroxybenzylidene)benzofuran-3(2H)-one]
- Average % Viability (4 h with LPS) ([1]; 20 μM): 94.6 ± 1.2%
- Average % Viability (4 h with LPS) ([1]; 25 μM): 92.9 ± 1.4%
- Average % Viability (4 h with LPS) ([1]; 40 μM): 90.9 ± 0.6%
- Average % TNF-α Inhibition (TNFα; LPS-stimulated THP-1 cells, 20, 25 and 40 μM (one cell for all concentrations)): No Inhibitions

SMILES: COc1ccc(/C=C2\Oc3ccccc3C2=O)cc1O [Aurone 9, (Z)-2-(3-hydroxy-4-methoxybenzylidene)benzofuran-3(2H)-one]
- inhibition at 40 µM (TNFα; [6]): 14.9 ± 7.2%

SMILES: O=C1/C(=C/c2ccccc2O)Oc2ccccc21 [aurone 4, (Z)-2-(2-hydroxybenzylidene)benzofuran-3(2H)-one]
- Average % Viability (4 h with LPS) ([1]; 20 μM): 99.4 ± 0.5%
- effect on TNFα expression (TNFα): low activity
- Average % TNF-α Inhibition (TNFα; [7]): No Inhibition

SMILES: COc1cccc(/C=C2\Oc3ccccc3C2=O)c1O [aurone 8, (Z)-2-(2-hydroxy-3-methoxybenzylidene)benzofuran-3(2H)-one]
- Average % Viability (4 h with LPS) ([1]; 20 μM): 101.3 ± 2.6%
- effect on TNFα expression (TNFα): lack of activity
- Average % TNF-α Inhibition (TNFα; [8]): No Inhibitions

SMILES: COc1ccc(/C=C2\Oc3ccccc3C2=O)cc1O [aurone 9, (Z)-2-(3-hydroxy-4-methoxybenzylidene)benzofuran-3(2H)-one]
- Average % Viability (4 h with LPS) ([1]; 20 μM): 101.8 ± 2.1%
- effect on TNFα expression (TNFα): weaker activity
- Average % TNF-α Inhibition (TNFα; [7]): No Inhibition
- melting point: 186 to 187 °C

SMILES: O=C1/C(=C/c2ccccc2O)Oc2ccccc21 [Aurone 4, (Z)-2-(2-hydroxybenzylidene)benzofuran-3(2H)-one]
- inhibition at 40 µM (TNFα; [6]): 15.4 ± 5.3%

SMILES: COc1cc(OC)c2c(c1)O/C(=C\c1ccc(C#N)cc1)C2=O [Aurone 7002, (Z)-4-((4,6-dimethoxy-3-oxobenzofuran-2(3H)-ylidene)methyl)benonitrile]
- IC50 ([2]; Table 2): > 50 µM
- IC50 ([2]; Trypanosoma brucei, Table 1): > 50 µM
- IC50 [3, 9]: > 50 µM
- IC50 [3, 10]: > 50 µM
- IC50 ([4]; read-out: IC50 L. amaz.): 2.08 µM
- IC50 ([4]; read-out: IC50 L. amaz. (footnote c: value obtained from one trial)): 2.08 µM
- Selectivity L6/La ([4]; Table 1): 39.68
- Selectivity L6/La [4, 11]: 39.68
- IC50 [5]: 82.5 µM
- melting point: 220 to 223 °C

SMILES: Cc1ccc2c(c1)C(=O)/C(=C/c1ccc(C#N)cc1)O2 [Aurone 4001, (Z)-4-((5-methyl-3-oxobenzofuran-2(3H)-ylidene)methyl)benzonitrile]
- Selectivity L6/Tb ([2]; Table 1): 28.66
- Selectivity L6/Tb [2, 12]: 28.66
- IC50 ([2]; Trypanosoma brucei, Table 1): 2.66 µM
- Selectivity L6/Tc ([3]; Table 1, T. cruzi IC50 from extracellular assay (^b)): 2.40
- Selectivity L6/Tc (T. cruzi value from extracellular assay) ([3]; Table 2, L6 IC50 / T. cruzi IC50 (extracellular assay)): 2.40
- IC50 [3, 9]: 31.7 µM
- IC50 [3, 10]: 31.7 µM
- IC50 ([4]; read-out: IC50 L. amaz.): 38.4 µM
- Selectivity L6/La ([4]; Table 1): 1.98
- Selectivity L6/La [4, 11]: 1.98
- IC50 [5]: 76.2 µM
- melting point: 148 to 152 °C

SMILES: COc1ccc(/C=C2\Oc3ccc(C)cc3C2=O)c(OC)c1OC [Aurone 4004, (Z)-5-methyl-2-(2,3,4-trimethoxybenzylidene)benzofuran-3(2H)-one]
- Selectivity L6/Tb ([2]; Table 1): 2.23
- Selectivity L6/Tb [2, 12]: 2.23
- IC50 ([2]; Trypanosoma brucei, Table 1): 19.7 µM
- IC50 [3, 9]: > 50 µM
- IC50 [3, 10]: > 50 µM
- IC50 ([4]; read-out: IC50 L. amaz.): 4.04 µM
- Selectivity L6/La ([4]; Table 1): 10.86
- Selectivity L6/La [4, 11]: 10.86
- IC50 [5]: 43.9 µM
- melting point: 74 to 78 °C

SMILES: Cc1ccc(/C=C2\Oc3ccccc3C2=O)o1 [compound 2]
- Average % Viability (4 h with LPS) ([1]; 25 μM): 99.4 ± 9.3%
- Average % Viability (4 h with LPS) ([1]; 50 μM): 118.3 ± 1.3%
- Average % Viability (4 h with LPS) ([1]; 100 μM): 108.9 ± 2.0%
- effect on TNFα expression (TNFα): complete loss of activity
- Average % TNF-α Inhibition (TNFα; LPS-stimulated THP-1 cells, 25, 50 and 100 μM (one cell for all concentrations)): No Inhibitions

SMILES: Cc1ccc2c(c1)C(=O)/C(=C/c1ccc(Br)cc1)O2 [Aurone 4002, (Z)-2-(4-bromobenzylidene)-5-methylbenzofuran-3(2H)-one]
- Selectivity L6/Tb ([2]; Table 1): >2.34
- IC50 ([2]; Trypanosoma brucei, Table 1): 42.8 µM
- IC50 [3, 9]: > 50 µM
- IC50 ([4]; read-out: IC50 L. amaz.): 19.7 µM
- Selectivity L6/La ([4]; Table 1): >5.07
- IC50 [5]: > 100 µM
- melting point: 171 to 175 °C

SMILES: O=C1/C(=C/c2ccco2)Oc2ccccc21 [compound 3]
- Average % Viability (4 h with LPS) ([1]; 12.5 μM): 104.3 ± 2.2%
- Average % Viability (4 h with LPS) ([1]; 25 μM): 102.1 ± 0.8%
- Average % Viability (4 h with LPS) ([1]; 50 μM): 92.2 ± 0.9%
- effect on TNFα expression (TNFα): complete loss of activity
- Average % TNF-α Inhibition (TNFα; LPS-stimulated THP-1 cells, 12.5, 25 and 50 μM (one cell for all concentrations)): No Inhibitions

SMILES: O=C1/C(=C/c2ccc(O)cc2)Oc2ccccc21 [Aurone 6, (Z)-2-(4-hydroxybenzylidene)benzofuran-3(2H)-one]
- Average % Viability (4 h with LPS) ([1]; 20 μM): 99.8 ± 1.5%
- Average % Viability (4 h with LPS) ([1]; 40 μM): 98.5 ± 0.1%
- Average % TNF-α Inhibition (TNFα; [8]): No Inhibitions

SMILES: COc1cc(/C=C2\Oc3ccccc3C2=O)ccc1O [aurone 7, (Z)-2-(4-hydroxy-3-methoxybenzylidene)benzofuran-3(2H)-one]
- Average % Viability (4 h with LPS) ([1]; 20 μM): 97.0 ± 0.3%
- effect on TNFα expression (TNFα): weaker activity
- Average % TNF-α Inhibition (TNFα; [7]): No Inhibition

SMILES: O=C1/C(=C/c2ccc(CO)o2)Oc2ccccc21 [Aurone 1]
- inhibition at 40 µM (TNFα; [6]): 51.8 ± 13.5%
- inhibition at 80 µM (TNFα; Homo sapiens, LPS-stimulated THP-1 cells, 80 μM, mean ± SD, read-out: Average % TNF-α Inhibition): 93.8 ± 0.7%

SMILES: COc1cc(/C=C2\Oc3ccccc3C2=O)ccc1O [Aurone 7, (Z)-2-(4-hydroxy-3-methoxybenzylidene)benzofuran-3(2H)-one]
- inhibition at 40 µM (TNFα; [6]): 10.4 ± 4.7%
